Values quoted from earlier work in patent US20100172990A1, “BIOCOMPATIBLE MICROGELS AND APPLICATIONS THEREOF” (UNIVERSIDAD DEL PAIS VASCO, priority 2007, published 2010).

Conditions: at 55° C.

solubility in water: approximately 88 g/L
Compound: C=CN1CCCCCC1=O [VCL, N-vinylcaprolactam]
